{"source": "paper PMC4620497", "about": "(Scientific Reports, 2015)", "key": {"CDK8": {"target": "T1, CDK8 (Homo sapiens, UniProt P49336)", "T1 construct": "purchased DiscoveRx KINOMEscan (Ambit Biosciences)", "experiment": "KINOMEscan panel screen", "assay_type": "binding", "settings": "read-out: Percent Control(%)"}, "DRAK2": {"target": "T2, DRAK2 (Homo sapiens, UniProt O94768)", "T2 construct": "purchased DiscoveRx KINOMEscan (Ambit Biosciences)", "experiment": "KINOMEscan panel screen", "assay_type": "binding", "settings": "read-out: Percent Control(%)"}, "FGR": {"target": "T3, FGR (Homo sapiens, UniProt P09769)", "T3 construct": "purchased DiscoveRx KINOMEscan (Ambit Biosciences)", "experiment": "KINOMEscan panel screen", "assay_type": "binding", "settings": "read-out: Percent Control(%)"}, "FRK": {"target": "T4, FRK (Homo sapiens, UniProt P42685)", "T4 construct": "purchased DiscoveRx KINOMEscan (Ambit Biosciences)", "experiment": "KINOMEscan panel screen", "assay_type": "binding", "settings": "read-out: Percent Control(%)"}, "HIPK3": {"target": "T5, HIPK3 (Homo sapiens, UniProt Q9H422)", "T5 construct": "purchased DiscoveRx KINOMEscan (Ambit Biosciences)", "experiment": "KINOMEscan panel screen", "assay_type": "binding", "settings": "read-out: Percent Control(%)"}, "LOK": {"target": "LOK (Homo sapiens, UniProt O94804)", "sequence (O94804 whole entry)": "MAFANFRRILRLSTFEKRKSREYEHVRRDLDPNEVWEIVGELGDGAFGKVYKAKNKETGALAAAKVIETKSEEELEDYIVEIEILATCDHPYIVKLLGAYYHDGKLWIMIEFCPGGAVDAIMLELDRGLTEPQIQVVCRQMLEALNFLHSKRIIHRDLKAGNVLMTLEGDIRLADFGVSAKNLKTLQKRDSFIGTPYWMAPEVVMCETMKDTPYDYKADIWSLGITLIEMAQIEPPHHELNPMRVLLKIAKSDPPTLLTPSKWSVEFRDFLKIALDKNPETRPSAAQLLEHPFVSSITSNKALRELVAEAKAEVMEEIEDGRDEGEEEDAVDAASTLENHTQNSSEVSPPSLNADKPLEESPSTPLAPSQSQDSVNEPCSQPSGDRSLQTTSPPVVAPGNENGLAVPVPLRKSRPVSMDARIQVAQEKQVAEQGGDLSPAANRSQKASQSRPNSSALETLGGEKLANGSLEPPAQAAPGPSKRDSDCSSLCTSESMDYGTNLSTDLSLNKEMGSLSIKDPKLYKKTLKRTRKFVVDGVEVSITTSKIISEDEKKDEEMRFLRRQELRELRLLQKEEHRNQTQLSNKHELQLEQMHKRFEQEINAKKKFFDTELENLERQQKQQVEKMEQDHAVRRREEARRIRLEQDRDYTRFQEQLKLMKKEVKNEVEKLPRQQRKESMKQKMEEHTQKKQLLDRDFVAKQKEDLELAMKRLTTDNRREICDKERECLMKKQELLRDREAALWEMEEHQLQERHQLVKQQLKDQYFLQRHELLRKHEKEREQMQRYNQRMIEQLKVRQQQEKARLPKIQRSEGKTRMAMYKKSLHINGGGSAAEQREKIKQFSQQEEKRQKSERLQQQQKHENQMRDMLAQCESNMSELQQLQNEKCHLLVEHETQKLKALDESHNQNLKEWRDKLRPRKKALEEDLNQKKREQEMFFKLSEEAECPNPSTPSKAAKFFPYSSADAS", "experiment": "KINOMEscan panel screen", "assay_type": "binding", "settings": "read-out: Percent Control(%)"}, "MAP4K4": {"target": "T6, MAP4K4 (Homo sapiens, UniProt O95819)", "T6 construct": "purchased DiscoveRx KINOMEscan (Ambit Biosciences)", "experiment": "KINOMEscan panel screen", "assay_type": "binding", "settings": "read-out: Percent Control(%)"}, "MAP4K5": {"target": "T7, MAP4K5 (Homo sapiens, UniProt Q9Y4K4)", "T7 construct": "purchased DiscoveRx KINOMEscan (Ambit Biosciences)", "experiment": "KINOMEscan panel screen", "assay_type": "binding", "settings": "read-out: Percent Control(%)"}, "PAK2": {"target": "T8, PAK2 (Homo sapiens, UniProt Q13177)", "T8 construct": "purchased DiscoveRx KINOMEscan (Ambit Biosciences)", "experiment": "KINOMEscan panel screen", "assay_type": "binding", "settings": "read-out: Percent Control(%)"}, "PIK3C2G": {"target": "T9, PIK3C2G (Homo sapiens, UniProt O75747)", "T9 construct": "purchased DiscoveRx KINOMEscan (Ambit Biosciences)", "experiment": "KINOMEscan panel screen", "assay_type": "binding", "settings": "read-out: Percent Control(%)"}, "PRKCE": {"target": "T10, PRKCE (Homo sapiens, UniProt Q02156)", "T10 construct": "purchased DiscoveRx KINOMEscan (Ambit Biosciences)", "experiment": "KINOMEscan panel screen", "assay_type": "binding", "settings": "read-out: Percent Control(%)"}, "PRKCH": {"target": "T11, PRKCH (Homo sapiens, UniProt P24723)", "T11 construct": "purchased DiscoveRx KINOMEscan (Ambit Biosciences)", "experiment": "KINOMEscan panel screen", "assay_type": "binding", "settings": "read-out: Percent Control(%)"}, "PRKD3": {"target": "T12, PRKD3 (Homo sapiens, UniProt O94806)", "T12 construct": "purchased DiscoveRx KINOMEscan (Ambit Biosciences)", "experiment": "KINOMEscan panel screen", "assay_type": "binding", "settings": "read-out: Percent Control(%)"}, "RET(V804L)": {"target": "T13, RET(V804L) (Homo sapiens, UniProt P07949, V804L)", "T13 construct": "purchased DiscoveRx KINOMEscan (Ambit Biosciences)", "T13 sequence (P07949 29-1114 V804L)": "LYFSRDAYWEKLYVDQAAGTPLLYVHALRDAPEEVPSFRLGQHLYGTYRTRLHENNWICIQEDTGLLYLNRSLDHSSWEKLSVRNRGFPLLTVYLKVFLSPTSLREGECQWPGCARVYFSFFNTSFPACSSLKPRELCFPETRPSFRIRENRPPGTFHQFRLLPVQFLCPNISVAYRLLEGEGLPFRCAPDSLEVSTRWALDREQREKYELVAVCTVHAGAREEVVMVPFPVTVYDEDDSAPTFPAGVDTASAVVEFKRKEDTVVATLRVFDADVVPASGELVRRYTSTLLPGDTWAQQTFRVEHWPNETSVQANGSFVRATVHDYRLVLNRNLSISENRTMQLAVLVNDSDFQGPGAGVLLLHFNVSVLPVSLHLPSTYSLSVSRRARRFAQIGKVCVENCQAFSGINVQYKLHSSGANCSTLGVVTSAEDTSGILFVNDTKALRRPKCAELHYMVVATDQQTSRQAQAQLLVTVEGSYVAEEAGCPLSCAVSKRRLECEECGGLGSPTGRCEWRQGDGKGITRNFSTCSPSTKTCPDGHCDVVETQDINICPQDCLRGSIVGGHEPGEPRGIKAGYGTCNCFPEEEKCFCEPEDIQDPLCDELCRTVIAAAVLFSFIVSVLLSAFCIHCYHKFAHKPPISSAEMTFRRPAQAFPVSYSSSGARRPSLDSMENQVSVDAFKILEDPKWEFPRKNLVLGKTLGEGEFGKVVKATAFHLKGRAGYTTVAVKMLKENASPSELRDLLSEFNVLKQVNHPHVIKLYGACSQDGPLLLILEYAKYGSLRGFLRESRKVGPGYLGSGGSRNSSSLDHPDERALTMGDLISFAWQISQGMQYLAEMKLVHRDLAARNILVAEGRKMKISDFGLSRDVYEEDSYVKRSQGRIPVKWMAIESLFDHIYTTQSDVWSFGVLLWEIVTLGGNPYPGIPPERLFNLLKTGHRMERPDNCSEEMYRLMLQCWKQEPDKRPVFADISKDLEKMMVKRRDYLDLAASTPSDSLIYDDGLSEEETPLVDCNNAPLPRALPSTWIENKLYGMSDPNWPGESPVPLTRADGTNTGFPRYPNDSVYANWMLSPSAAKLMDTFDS", "experiment": "KINOMEscan panel screen", "assay_type": "binding", "settings": "read-out: Percent Control(%)"}, "RIOK1": {"target": "T14, RIOK1 (Homo sapiens, UniProt Q9BRS2)", "T14 construct": "purchased DiscoveRx KINOMEscan (Ambit Biosciences)", "experiment": "KINOMEscan panel screen", "assay_type": "binding", "settings": "read-out: Percent Control(%)"}, "YANK3": {"target": "T15, YANK3 (Homo sapiens, UniProt Q86UX6)", "T15 construct": "purchased DiscoveRx KINOMEscan (Ambit Biosciences)", "T15 sequence (Q86UX6 whole entry)": "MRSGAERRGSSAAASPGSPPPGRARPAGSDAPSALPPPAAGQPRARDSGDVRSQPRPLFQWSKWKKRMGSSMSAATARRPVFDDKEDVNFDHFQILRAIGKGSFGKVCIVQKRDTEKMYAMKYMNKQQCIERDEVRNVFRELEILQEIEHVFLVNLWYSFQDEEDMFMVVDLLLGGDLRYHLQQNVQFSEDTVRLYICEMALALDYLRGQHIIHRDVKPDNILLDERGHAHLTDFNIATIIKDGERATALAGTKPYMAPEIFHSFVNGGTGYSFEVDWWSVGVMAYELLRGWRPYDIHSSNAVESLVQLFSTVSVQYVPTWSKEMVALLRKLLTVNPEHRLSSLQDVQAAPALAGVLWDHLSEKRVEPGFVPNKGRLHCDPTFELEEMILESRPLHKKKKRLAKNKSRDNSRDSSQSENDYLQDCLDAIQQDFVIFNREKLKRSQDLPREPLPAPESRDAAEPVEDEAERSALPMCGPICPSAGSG", "experiment": "KINOMEscan panel screen", "assay_type": "binding", "settings": "read-out: Percent Control(%)"}, "ZAP70": {"target": "T16, ZAP70 (Homo sapiens, UniProt P43403)", "T16 construct": "purchased DiscoveRx KINOMEscan (Ambit Biosciences)", "T16 sequence (P43403 whole entry)": "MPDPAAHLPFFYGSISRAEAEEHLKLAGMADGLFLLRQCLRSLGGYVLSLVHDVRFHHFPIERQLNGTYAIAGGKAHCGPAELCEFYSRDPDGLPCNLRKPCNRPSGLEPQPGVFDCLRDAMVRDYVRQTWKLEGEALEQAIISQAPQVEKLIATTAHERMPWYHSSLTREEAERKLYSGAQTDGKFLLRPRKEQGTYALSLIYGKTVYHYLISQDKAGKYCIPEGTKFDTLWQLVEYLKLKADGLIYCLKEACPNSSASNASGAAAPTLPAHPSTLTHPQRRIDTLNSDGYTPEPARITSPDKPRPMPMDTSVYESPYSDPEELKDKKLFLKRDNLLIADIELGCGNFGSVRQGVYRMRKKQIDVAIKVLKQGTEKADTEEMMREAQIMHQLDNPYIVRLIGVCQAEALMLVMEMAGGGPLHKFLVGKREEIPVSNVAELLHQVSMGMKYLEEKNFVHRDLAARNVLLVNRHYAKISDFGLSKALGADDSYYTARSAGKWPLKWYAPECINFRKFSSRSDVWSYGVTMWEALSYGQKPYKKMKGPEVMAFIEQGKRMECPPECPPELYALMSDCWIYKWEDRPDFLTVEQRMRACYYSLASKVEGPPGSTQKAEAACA", "experiment": "KINOMEscan panel screen", "assay_type": "binding", "settings": "read-out: Percent Control(%)"}, "MAST1": {"target": "T17, MAST1 (Homo sapiens, UniProt Q9Y2H9)", "T17 construct": "purchased DiscoveRx KINOMEscan (Ambit Biosciences)", "T17 sequence (Q9Y2H9 whole entry)": "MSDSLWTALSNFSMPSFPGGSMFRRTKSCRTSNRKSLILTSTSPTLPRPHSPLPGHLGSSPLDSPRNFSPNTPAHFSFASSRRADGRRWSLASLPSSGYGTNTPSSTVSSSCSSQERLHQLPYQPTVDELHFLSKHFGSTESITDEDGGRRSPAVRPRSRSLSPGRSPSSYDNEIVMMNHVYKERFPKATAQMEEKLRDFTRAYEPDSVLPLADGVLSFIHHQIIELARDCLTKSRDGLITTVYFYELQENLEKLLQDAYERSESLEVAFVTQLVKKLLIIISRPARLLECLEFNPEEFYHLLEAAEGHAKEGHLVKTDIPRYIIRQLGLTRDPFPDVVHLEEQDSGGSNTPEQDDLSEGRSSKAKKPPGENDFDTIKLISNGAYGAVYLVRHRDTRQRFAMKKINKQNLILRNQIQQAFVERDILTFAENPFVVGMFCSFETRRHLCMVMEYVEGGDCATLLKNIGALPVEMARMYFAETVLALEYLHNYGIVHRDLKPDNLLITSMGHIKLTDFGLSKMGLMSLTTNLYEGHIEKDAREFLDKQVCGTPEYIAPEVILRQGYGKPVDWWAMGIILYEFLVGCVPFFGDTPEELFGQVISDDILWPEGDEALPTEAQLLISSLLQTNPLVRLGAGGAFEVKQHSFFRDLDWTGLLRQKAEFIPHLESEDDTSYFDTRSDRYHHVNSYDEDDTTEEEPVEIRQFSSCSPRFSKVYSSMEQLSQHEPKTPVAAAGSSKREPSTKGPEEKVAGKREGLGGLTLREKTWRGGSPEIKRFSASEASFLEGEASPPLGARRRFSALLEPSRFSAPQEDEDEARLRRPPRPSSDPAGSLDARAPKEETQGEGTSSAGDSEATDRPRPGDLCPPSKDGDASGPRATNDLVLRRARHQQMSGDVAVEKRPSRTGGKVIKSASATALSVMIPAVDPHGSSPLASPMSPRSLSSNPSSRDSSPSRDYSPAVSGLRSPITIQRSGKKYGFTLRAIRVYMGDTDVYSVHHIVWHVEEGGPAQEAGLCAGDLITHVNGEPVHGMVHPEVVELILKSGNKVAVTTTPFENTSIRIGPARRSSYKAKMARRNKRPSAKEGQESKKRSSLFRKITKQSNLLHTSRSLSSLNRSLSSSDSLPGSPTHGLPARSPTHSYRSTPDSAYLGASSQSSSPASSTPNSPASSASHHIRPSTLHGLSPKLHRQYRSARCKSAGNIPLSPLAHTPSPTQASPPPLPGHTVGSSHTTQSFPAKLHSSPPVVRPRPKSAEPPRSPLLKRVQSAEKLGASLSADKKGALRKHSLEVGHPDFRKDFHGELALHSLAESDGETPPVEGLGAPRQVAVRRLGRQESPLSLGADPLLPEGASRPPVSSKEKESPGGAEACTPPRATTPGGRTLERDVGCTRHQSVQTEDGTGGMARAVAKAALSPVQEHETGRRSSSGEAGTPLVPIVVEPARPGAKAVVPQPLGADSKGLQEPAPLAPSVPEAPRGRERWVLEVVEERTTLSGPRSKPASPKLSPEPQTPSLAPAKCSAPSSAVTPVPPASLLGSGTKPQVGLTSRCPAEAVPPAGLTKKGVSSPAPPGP", "experiment": "KINOMEscan kinase binding assay (Kd)"}, "normal PBMCs": {"tested_on": "normal PBMCs", "experiment": "Long-term culture-initiating cell (LTC-IC) assay", "assay_type": "cell-based, human", "settings": "10 nM and 50 nM", "protocol": "(§1) In addition to the SP cell assay, we also evaluated the effects of SKLB-677 on the long-term culture-initiating (LTC-IC) cells; the long-term culture of LTC-IC cells can be used as surrogate markers of self-renewal capacity. SKLB-677 treated primary AML PBMCs or normal PBMCs were co-cultured with M2-10B4 stromal cells for 6 weeks, and then the colony formation capacity of LTC-IC cells were determined. In this assay, three primary AML PBMC samples and three normal PBMC samples were included, and each sample was conducted in triplicate.\n(§2) PBMCs from AML patients (n = 3) and normal people (n = 3) were plated on M2-10B4 feeder cell layers (irradiated with 8000cGy) established in 6-well plates in HLTM medium (Myelocult H5100, […]) freshly supplemented with 10^−6 M hydrocortisone ([…]). Cultures were maintained with 0.1% DMSO or SKLB-677 for […] with weekly half-media changes, before seeding harvested cells into Colony-forming unit assays (cells were seeded in ultra-low attachment 6-well plates (Corning) in triplicate with the complete MethoCult Media ([…]) for 14 days). The assay for each sample was performed in triplicate. The colonies were counted under a microscope, and an obvious and visible cell cluster was considered a colony. The representative images were taken on an Axiovert 200 microscope with an AxiocamMRm camera with 0.30 aperture. Image acquisition software: AxioVisionRell 4.8.\n(§3) Figure 4 The in vitro effects of SKLB-677 on leukemia side population (SP) cells and leukemia-initiating cells (LICs). (a) MV4-11 cells were stained with Hoechst 33342 after a treatment of SKLB-677 for 12 h. […] (b) The separated PBMCs were incubated on M2-10B4 stromal cells with SKLB-677 (1 nM and 10 nM for primary AML PBMCs, 10 nM and 50 nM for normal PBMCs) and/or 0.1% DMSO and then half medium replaced weekly for six weeks in long-term culture-initiating cells (LTC-IC) assays. Representative CAFCs (cobble stone area forming cells, the clusters of LTC-IC cells) are shown (left, black arrows)."}, "primary AML PBMCs": {"tested_on": "primary AML PBMCs", "experiment": "Long-term culture-initiating cell (LTC-IC) assay", "assay_type": "cell-based, human", "protocol": "as §1, §2, §3"}, "PANC-1": {"tested_on": "PANC-1", "experiment": "MTT cell viability assay", "settings": "Homo sapiens, PANC-1, 72 h"}}}
{"smiles": "CC(C)(C)c1cc(NC(=O)Nc2ccc(Oc3ncnc4[nH]ncc34)c(F)c2)no1", "note": "[SKLB-677, 1-(4-(1H-pyrazolo[3,4-d]pyrimidin-4-yloxy)-3-fluorophenyl)-3-(5-tert-butylisoxazol-3-yl)urea]", "values": [{"measurement": "remaining binding at 10 µM", "setting": "CDK8", "value": 3, "unit": "%"}, {"measurement": "remaining binding at 10 µM", "setting": "DRAK2", "value": 78, "unit": "%"}, {"measurement": "remaining binding at 10 µM", "setting": "FGR", "value": 9.4, "unit": "%"}, {"measurement": "remaining binding at 10 µM", "setting": "FRK", "value": 0, "unit": "%"}, {"measurement": "remaining binding at 10 µM", "setting": "HIPK3", "value": 1.2, "unit": "%"}, {"measurement": "remaining binding at 10 µM", "setting": "LOK", "value": 0, "unit": "%"}, {"measurement": "remaining binding at 10 µM", "setting": "MAP4K4", "value": 0, "unit": "%"}, {"measurement": "remaining binding at 10 µM", "setting": "MAP4K5", "value": 2, "unit": "%"}, {"measurement": "remaining binding at 10 µM", "setting": "PAK2", "value": 79, "unit": "%"}, {"measurement": "remaining binding at 10 µM", "setting": "PIK3C2G", "value": 100, "unit": "%"}, {"measurement": "remaining binding at 10 µM", "setting": "PRKCE", "value": 90, "unit": "%"}, {"measurement": "remaining binding at 10 µM", "setting": "PRKCH", "value": 100, "unit": "%"}, {"measurement": "remaining binding at 10 µM", "setting": "PRKD3", "value": 100, "unit": "%"}, {"measurement": "remaining binding at 10 µM", "setting": "RET(V804L)", "value": 0, "unit": "%"}, {"measurement": "remaining binding at 10 µM", "setting": "RIOK1", "value": 89, "unit": "%"}, {"measurement": "remaining binding at 10 µM", "setting": "YANK3", "value": 97, "unit": "%"}, {"measurement": "remaining binding at 10 µM", "setting": "ZAP70", "value": 100, "unit": "%"}, {"measurement": "Kd", "setting": "MAST1", "value": "> 10", "unit": "µM"}, {"measurement": "average LTC-IC colony numbers of three normal PBMC samples", "setting": "normal PBMCs", "value": "almost not changed"}, {"measurement": "average LTC-IC colony numbers of three samples compared with control", "setting": "primary AML PBMCs; 1 nM", "value": 30, "unit": "%"}, {"measurement": "average LTC-IC colony numbers of three samples compared with control", "setting": "primary AML PBMCs; 10 nM", "value": 10, "unit": "%"}, {"measurement": "IC50", "setting": "PANC-1", "value": "> 10", "unit": "µM"}]}
